Data set [1] deals with Rattus norvegicus. Description: Effect on sleep-awake pattern in CD IGS rat model of insomnia assessed as latency to REM sleep at 60 mg/kg, po by EEG/EMG study relative to control. It is filed as functional.
The target of data set [2] is T1, Voltage-gated inwardly rectifying potassium channel KCNH2 (Homo sapiens, UniProt Q12809). Nature of the data set: Inhibition of human ERG expressed in HEK cells assessed as blockade of potassium tail current by standard patch clamp analysis. Background: Patch clamp records ionic current or voltage across a cell membrane.
Data set [3] relates to Rattus norvegicus. Nature of the data set: Effect on sleep-awake pattern in CD IGS rat model of insomnia assessed as longest 3 NREM bouts at 30 mg/kg, po after 6 hrs by EEG/EMG study relative to control. Type of data set: functional.
Data set [4] deals with Rattus norvegicus. Nature of the data set: Increase in REM sleep in CD IGS rat model of insomnia at 60 mg/kg, po after 4 hrs by EEG/EMG study relative to control. Type of data set: functional.
For data set [5], the system named is Rattus norvegicus. Nature of the data set: Effect on sleep-awake pattern in CD IGS rat model of insomnia assessed as latency to NREM sleep at 30 mg/kg, po by EEG/EMG study relative to control. It is filed as functional.
The test system of data set [6] is Rattus norvegicus. Nature of the data set: Effect on sleep-awake pattern in CD IGS rat model of insomnia assessed as longest 3 NREM bouts at 60 mg/kg, po after 6 hrs by EEG/EMG study relative to control. It is filed as functional.
The test system of data set [7] is Rattus norvegicus. Description: Effect on sleep-awake pattern in CD IGS rat model of insomnia assessed as longest 3 REM bouts at 60 mg/kg, po after 6 hrs by EEG/EMG study relative to control. It is filed as functional.
A short description of data set [8]: Activity at P-glycoprotein.
Data set [9] is described as follows: Drug level in rat plasma at 30 mg/kg, po after 4 hrs. It is filed as ADME, organism-based. On the set-up: dose 30 mg/kg, route oral.
The target in data set [10] is Histamine H1 receptor (Homo sapiens, UniProt P35367). Nature of the data set: Displacement of [3H]pyrilamine from human histamine H1 receptor expressed in CHO Flp-In cells after 90 mins by scintillation counting. Type of data set: cell-based. The following applies: read-out: Ki.
The subject of data set [11] is Rattus norvegicus. Nature of the data set: Effect on sleep-awake pattern in CD IGS rat model of insomnia assessed as latency to REM sleep at 30 mg/kg, po by EEG/EMG study relative to control. Type of data set: functional.
Data set [12] deals with Rattus norvegicus. Description: Increase in NREM sleep in CD IGS rat model of insomnia at 60 mg/kg, po after 4 hrs by EEG/EMG study relative to control. It is filed as functional.
In data set [13] the test system is Caco-2. Nature of the data set: Ratio of permeability from apical to basolateral side over basolateral to apical side in human Caco-2 cells.
The subject of data set [14] is Rattus norvegicus. Description: Effect on sleep-awake pattern in CD IGS rat model of insomnia assessed as latency to NREM sleep at 60 mg/kg, po by EEG/EMG study relative to control. It is filed as functional.
Data set [15] deals with Rattus norvegicus. Description: Effect on sleep-awake pattern in CD IGS rat model of insomnia assessed as longest 3 REM bouts at 30 mg/kg, po after 6 hrs by EEG/EMG study relative to control. Type of data set: functional.
The test system of data set [16] is Rattus norvegicus. Description: Increase in NREM sleep in CD IGS rat model of insomnia at 30 mg/kg, po after 4 hrs by EEG/EMG study relative to control. It is filed as functional.
For data set [17], the target named is Cytochrome P450 2D6 (Homo sapiens, UniProt P10635). Nature of the data set: Inhibition of recombinant CYP2D6 after 30 mins by fluorescence assay.
Data set [18] has as its system Rattus norvegicus. Nature of the data set: Increase in REM sleep in CD IGS rat model of insomnia at 30 mg/kg, po after 4 hrs by EEG/EMG study relative to control. It is filed as functional.
Data set [19] in a line: Ratio of drug level in rat brain to plasma at 30 mg/kg, po after 4 hrs. On the set-up: dose 30 mg/kg, route oral. Type of data set: ADME, organism-based. Particulars: read-out: Ratio.
Data set [20] in a line: Drug level in rat brain at 30 mg/kg, po after 4 hrs. It is filed as ADME, organism-based. On the set-up: dose 30 mg/kg, route oral. Particulars: read-out: Drug uptake.
The target of data set [21] is Cytochrome P450 3A4 (Homo sapiens, UniProt P08684). Nature of the data set: Inhibition of recombinant CYP3A4 after 30 mins by fluorescence assay.
The target in data set [22] is T2, Muscarinic acetylcholine receptor M1 (Homo sapiens, UniProt P11229).
T2 sequence (P11229 whole entry): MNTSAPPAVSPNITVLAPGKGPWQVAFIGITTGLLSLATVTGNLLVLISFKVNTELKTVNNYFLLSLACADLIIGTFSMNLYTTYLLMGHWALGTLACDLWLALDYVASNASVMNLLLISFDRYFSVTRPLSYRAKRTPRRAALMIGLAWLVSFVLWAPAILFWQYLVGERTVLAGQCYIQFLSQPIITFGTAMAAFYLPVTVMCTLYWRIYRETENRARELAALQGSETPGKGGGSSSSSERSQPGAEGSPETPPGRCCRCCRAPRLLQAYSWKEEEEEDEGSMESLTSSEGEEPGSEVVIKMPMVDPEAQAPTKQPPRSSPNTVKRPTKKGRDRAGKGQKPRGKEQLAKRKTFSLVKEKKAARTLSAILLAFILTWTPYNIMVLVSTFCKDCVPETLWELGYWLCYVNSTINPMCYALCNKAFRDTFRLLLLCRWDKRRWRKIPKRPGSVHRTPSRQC
Description: Displacement of [3H]N-methylscopolamine from human muscarinic M1 receptor expressed in CHO Flp-In cells after 90 mins by scintillation counting. Type of data set: cell-based. Particulars: read-out: Ki. For orientation: Displacement assays read how much labelled ligand stays bound in the presence of the test substance.

Data set [23] can be described thus: Apparent permeability across human Caco-2 cells. Type of data set: ADME, cell-based. In general terms: Passage across Caco-2 layers is used to estimate intestinal permeability.
Data set [24] addresses T1, Voltage-gated inwardly rectifying potassium channel KCNH2. Description: Displacement of [3H]Dofetilide from human ERG.
Data set [25] in a line: Half life in human at 0.1 mg/kg by microdose study. It is filed as ADME, organism-based. On the set-up: dose 0.1 mg/kg. The following applies: in vivo.
Data set [26] is described as follows: AUC (0 to t) in human at 0.1 mg/kg, po by microdose study. Type of data set: ADME, organism-based. On the set-up: dose 0.1 mg/kg, route oral. Particulars: plasma.
Data set [27] can be described thus: Bioavailability in human at 0.1 mg/kg by microdose study. Particulars: in vivo. Type of data set: ADME, organism-based.
Data set [28] is described as follows: Systemic clearance in human at 0.1 mg/kg, iv by microdose study. Type of data set: ADME, organism-based. On the set-up: dose 0.1 mg/kg, route intravenous. The following applies: in vivo.
Data set [29] is described as follows: Volume of distribution at steady state in human at 0.1 mg/kg by microdose study. Type of data set: ADME, organism-based. On the set-up: dose 0.1 mg/kg. The following applies: in vivo, read-out: Vdss.

Calls of active or inactive are those of the source. The rule behind the calls is not given here.

T1 sequence (Q12809 whole entry): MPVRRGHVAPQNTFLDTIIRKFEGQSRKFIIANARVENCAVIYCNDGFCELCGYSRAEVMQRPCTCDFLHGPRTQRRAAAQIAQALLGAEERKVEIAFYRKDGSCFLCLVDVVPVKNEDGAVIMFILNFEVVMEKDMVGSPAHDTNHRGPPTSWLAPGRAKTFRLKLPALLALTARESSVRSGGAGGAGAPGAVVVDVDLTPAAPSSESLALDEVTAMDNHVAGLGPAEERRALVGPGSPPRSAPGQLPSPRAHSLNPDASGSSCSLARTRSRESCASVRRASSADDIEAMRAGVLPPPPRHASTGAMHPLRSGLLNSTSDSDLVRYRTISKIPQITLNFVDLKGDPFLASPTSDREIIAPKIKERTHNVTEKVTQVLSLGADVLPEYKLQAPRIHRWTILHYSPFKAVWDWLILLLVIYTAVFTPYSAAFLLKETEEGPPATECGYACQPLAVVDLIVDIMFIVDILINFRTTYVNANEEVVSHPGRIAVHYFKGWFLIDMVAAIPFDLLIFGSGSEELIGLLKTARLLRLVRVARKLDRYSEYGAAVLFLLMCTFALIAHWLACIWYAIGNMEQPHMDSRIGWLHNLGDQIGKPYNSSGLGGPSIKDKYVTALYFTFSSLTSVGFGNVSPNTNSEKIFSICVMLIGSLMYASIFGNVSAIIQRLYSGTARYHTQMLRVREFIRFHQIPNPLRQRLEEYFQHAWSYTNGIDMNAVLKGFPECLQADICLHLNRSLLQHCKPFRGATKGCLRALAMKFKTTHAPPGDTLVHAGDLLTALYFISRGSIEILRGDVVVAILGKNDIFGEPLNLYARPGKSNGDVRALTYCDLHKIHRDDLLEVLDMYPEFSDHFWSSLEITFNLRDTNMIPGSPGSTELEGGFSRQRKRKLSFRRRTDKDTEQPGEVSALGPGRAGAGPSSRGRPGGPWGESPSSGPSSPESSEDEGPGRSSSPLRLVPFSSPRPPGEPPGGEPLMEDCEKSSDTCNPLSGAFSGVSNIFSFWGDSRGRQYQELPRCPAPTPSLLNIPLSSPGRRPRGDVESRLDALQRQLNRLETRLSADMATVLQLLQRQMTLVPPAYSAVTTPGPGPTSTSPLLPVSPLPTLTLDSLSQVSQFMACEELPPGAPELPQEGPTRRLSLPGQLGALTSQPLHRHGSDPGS
Histamine H1 receptor, sequence (P35367 whole entry): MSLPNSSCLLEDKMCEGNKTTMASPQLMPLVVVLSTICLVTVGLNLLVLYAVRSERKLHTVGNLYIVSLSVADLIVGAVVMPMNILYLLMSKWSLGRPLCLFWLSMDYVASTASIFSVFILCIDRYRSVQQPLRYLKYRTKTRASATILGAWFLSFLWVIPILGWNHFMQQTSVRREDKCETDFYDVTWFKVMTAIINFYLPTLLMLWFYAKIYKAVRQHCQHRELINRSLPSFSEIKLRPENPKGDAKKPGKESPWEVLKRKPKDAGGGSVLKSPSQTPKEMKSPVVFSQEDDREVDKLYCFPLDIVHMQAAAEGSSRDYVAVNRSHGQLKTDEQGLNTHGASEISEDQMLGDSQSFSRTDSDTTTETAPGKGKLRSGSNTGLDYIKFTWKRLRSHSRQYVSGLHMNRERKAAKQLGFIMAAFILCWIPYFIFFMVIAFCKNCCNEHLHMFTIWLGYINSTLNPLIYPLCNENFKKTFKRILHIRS
Cytochrome P450 2D6, sequence (P10635 whole entry): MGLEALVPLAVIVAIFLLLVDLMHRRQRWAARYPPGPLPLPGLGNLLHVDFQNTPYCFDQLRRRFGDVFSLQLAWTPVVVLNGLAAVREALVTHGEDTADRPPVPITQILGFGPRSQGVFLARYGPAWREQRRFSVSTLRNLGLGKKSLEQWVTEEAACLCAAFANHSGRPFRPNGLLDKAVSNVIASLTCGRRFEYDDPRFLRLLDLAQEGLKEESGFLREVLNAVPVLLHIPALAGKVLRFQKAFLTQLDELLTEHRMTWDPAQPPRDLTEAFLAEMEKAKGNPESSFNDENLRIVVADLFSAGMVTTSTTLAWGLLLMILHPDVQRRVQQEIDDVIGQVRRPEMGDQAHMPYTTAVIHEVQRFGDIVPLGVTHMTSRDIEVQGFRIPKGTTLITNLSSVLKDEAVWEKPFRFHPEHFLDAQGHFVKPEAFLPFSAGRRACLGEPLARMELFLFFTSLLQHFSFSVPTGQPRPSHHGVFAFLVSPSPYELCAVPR
Cytochrome P450 3A4, sequence (P08684 whole entry): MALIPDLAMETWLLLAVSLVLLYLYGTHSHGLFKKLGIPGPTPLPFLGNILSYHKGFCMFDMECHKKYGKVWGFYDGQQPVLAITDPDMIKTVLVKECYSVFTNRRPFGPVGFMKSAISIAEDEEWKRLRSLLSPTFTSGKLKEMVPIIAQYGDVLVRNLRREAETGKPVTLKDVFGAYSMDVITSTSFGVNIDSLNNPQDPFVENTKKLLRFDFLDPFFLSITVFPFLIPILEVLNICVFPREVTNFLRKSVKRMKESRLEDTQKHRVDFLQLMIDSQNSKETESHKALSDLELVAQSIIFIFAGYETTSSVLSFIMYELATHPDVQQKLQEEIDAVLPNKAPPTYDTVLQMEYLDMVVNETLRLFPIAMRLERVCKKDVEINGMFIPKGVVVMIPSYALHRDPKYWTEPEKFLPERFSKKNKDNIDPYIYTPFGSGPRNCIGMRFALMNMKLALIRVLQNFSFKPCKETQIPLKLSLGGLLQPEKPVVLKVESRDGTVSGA

`COc1ncccc1[C@@H](C)c1c(CCN(C)C)sc2ccccc12`: the Activity is recorded as 72 min in data set [1]; 7 min in data set [3]; 6.8% in data set [4]; 37 min in data set [5]; 6.7 min in data set [6]; 2.3 min in data set [7]. Also, the Activity is 56 min in data set [11]; 28.3% in data set [12]; 49 min in data set [14]; 2.3 min in data set [15]; 33.1% in [16]; 7% in data set [18]. Besides, the IC50 – broadly, the concentration needed to halve the response being measured – in data set [2] was 1.8 µM; in [17], 9.6 µM; in [21] it was > 10 µM. Further, in data set [8], the outcome was inactive. For the same molecule, the values for the concentration at 4 h in data set [9] and in data set [20] were 37.5 ng/mL and 347 ng/g, respectively. In addition, the inhibition constant (Ki) (usually a measure of affinity in units of concentration, obtained from inhibition or displacement) was 0.0029 µM in data set [10], > 10 µM in data set [22] and > 5 µM in data set [24]. In addition, the Ratio in [13] is > 0.7. Further, in [19], the Kp at 4 h came out at 9. The Papp – broadly, a coefficient for how fast a substance crosses the barrier – in [23] was > 21.7 ×10⁻⁶ cm/s.
`C[C@H](c1cccnc1F)c1c(CCN(C)C)sc2ccccc12`: the Activity in data set [1] was found to be 64 min; in data set [3] it was 5.8 min; in data set [4], 6.6%; in data set [5], 33 min; in data set [6] it was 6.7 min; in [7], 2.2 min. Also, the Activity in data set [11] is on record as 49 min; in [12], 32%; in [14], 45 min; in [15], 2.1 min; in data set [16], 27.4%; in data set [18] it was 6.4%. Further, in data set [25], the half-life (in general, how long it takes for the measured level to halve) is 13 h. Also, the AUC(0-t) – broadly, the area under the concentration-time curve up to a stated or last time point – in data set [26] amounted to 0.64 ng·h/mL. For the same molecule, the result in [8] was inactive. Besides, the values for the concentration at 4 h in data set [9] and in data set [20] were 3 ng/mL and 83 ng/g, respectively. Also, the Ki in data set [10] is 0.0017 µM; in [22] it was > 10 µM. Also, in data set [27], the bioavailability – broadly, the share of a dose that reaches the circulation, judged against a reference dose that is usually intravenous – is 23%. Moreover, in data set [19], the Kp at 4 h stood at 26. Also, in [28], the clearance – broadly, the volume of plasma or blood freed of the substance per unit of time – was 12.1 mL/min/kg. For the same molecule, the Vd in [29] was found to be 5.6 L/kg. Besides, the Papp in [23] was > 21.7 ×10⁻⁶ cm/s.

Source of the values: ChEMBL document CHEMBL1156278, “Novel benzothiophene H1-antihistamines for the treatment of insomnia” (Bioorg Med Chem Lett, 2010).
